Counter-ions that a name gives are not always drawn.

For orientation: Ki means a dissociation constant, usually derived from enzyme kinetics or from competition with a known ligand. As a reminder, the % Inhibition is the percentage by which the read-out fell short of the control. A lower % Inhibition goes with little suppression. What is called inhibition is the percentage by which the read-out fell short of the control.

In the first experiment the target is T1, human cloned 5-HT6 receptors (Homo sapiens, UniProt P50406).
T1 construct: expressed in transfected cells; host or cells: HeLa cells
T1 sequence (P50406 whole entry): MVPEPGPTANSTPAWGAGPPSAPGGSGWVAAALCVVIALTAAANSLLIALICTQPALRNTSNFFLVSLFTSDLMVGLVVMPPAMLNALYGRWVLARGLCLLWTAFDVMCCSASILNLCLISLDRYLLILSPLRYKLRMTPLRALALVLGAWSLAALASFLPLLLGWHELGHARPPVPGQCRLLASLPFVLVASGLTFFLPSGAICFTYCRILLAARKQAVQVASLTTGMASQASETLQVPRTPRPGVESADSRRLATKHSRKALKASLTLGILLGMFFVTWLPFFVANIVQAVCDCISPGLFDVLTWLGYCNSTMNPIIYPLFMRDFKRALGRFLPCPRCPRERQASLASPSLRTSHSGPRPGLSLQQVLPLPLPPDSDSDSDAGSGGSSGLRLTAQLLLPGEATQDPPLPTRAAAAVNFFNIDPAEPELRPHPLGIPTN
It is filed as binding. The note with it: [3H]-LSD 3.0 nM, Hela cell membranes; read-out: 5-HT6 Binding Ki. The procedure:
This operation is repeated.
The reaction is allowed to proceed in the dark for 120 min at room temperature, at which time, the bound ligand-receptor complex is filtered off on a 96 well unifilter with a Packard Filtermate® 196 Harvester. The bound complex caught on the filter disk is allowed to air dry and the radioactivity is measured in a Packard TopCount® equipped with six photomultiplier detectors, after the addition of 40.0 μl Microscint®-20 scintillant to each shallow well. The unifilter plate is heat-sealed and counted in a PackardTopCount® with a tritium efficiency of 31.0%.
Specific binding to the 5-HT6 receptor is defined as the total radioactivity bound less the amount bound in the presence of 10.0 μM unlabeled methiothepin. Binding in the presence of varying concentrations of test compound is expressed as a percentage of specific binding in the absence of test compound. The results are plotted as logit % bound versus log concentration of test compound. Nonlinear regression analysis of data points with a computer assisted program Prism® yields both the IC50 and the Ki values of test compounds with 95% confidence limits.
The amount of displacement by the test compound is given in percent (%) inhibition and is derived from the following equation: [formula] where B0 is the amount of CPM bound in the presence of the testing agent. NSB represents the CPM bound in the presence of a saturating concentration of a displacer and TB represents the total amount of CPM bound at zero (0) concentration of test compound.
Alternatively, a linear regression line of decline of data points is plotted, from which the IC50 value can be read off and the Ki value determined by solving the following equation: [formula] where L is the concentration of the radioactive ligand used and KD is the dissociation constant of the ligand for the receptor, both expressed in nM.
`COc1ccc(S(=O)(=O)Nc2ccc3c(c2)c(C(C)=NNC(=N)N)cn3C)cc1OC` [Example 23]: the inhibition constant Ki stood at 3 nM.

`CC(=NNC(=N)N)c1c(-c2ccccc2)n(C)c2ccccc12` [Example 86, 2-[1-(1-methyl-2-phenyl-1H-indol-3-yl)-ethylidene]hydrazinecarboximidamide]: the Ki came out at 19 nM. Still for that read-out and setting: to `C/C(=N\NC(=N)N)c1cn(C)c2ccc(NS(=O)(=O)c3ccccc3)cc12` [Example 8, (Z)-2-{-1-[1-methyl-5-[(phenylsulfonyl)amino]-1H-indol-3-yl]ethylidene}hydrazinecarboximidamide Hydrochloride] belongs 2 nM.

The same experiment, now with this note: test compound dose 100 nM; displacement of [3H]-LSD.
Take “N-benzyl-2-(6-chloro-1,2,3,9-tetrahydro-4H-carbazol-4-ylidene)hydrazinecarboximidamide [Example 182]”: the “% Inhibition” value is given as 47.3%.

Still in this experiment, the particulars now being: test compound dose 100 nM; displacement of [3H]-LSD; read-out: % Inhibition.
Consider `Cc1ccc2[nH]c3c(c2c1)C(=NNC(=N)N)CC(C)(C)C3` [Example 163, 2-(2,2,6-trimethyl-1,2,3,9-tetrahydro-4H-carbazol-4-ylidene)hydrazinecarboximidamide], for which the inhibition at 0.1 µM was 38.5%. The same measure, in the same setting: the result for `Cc1ccc2[nH]c3c(c2c1)C(=NNC(=N)N)CC(c1ccccc1)C3` (stereo not shown) [Example 164, 2-(6-methyl-2-phenyl-1,2,3,9-tetrahydro-4H-carbazol-4-ylidene)hydrazinecarboximidamide] reads 27.6%; that for `CC(C)c1ccc2[nH]c3c(c2c1)C(=NN(C)C1=NCCN1)CC(c1ccccc1)C3` (stereo not shown) [Example 178, 6-isopropyl-2-phenyl-1,2,3,9-tetrahydro-4H-carbazol-4-one 4,5-dihydro-1H-imidazol-2-yl-(methyl)hydrazone], 25.6%; that for `CC(C)c1ccc2[nH]c3c(c2c1)C(=NNC(=N)N)CC(C)(C)C3` [Example 166, 2-(6-isopropyl-2,2-dimethyl-1,2,3,9-tetrahydro-4H-carbazol-4-ylidene)hydrazinecarboximidamide], 27.3%.

For `Cc1ccc2[nH]c3c(c2c1)C(=NN(C)C1=NCCN1)CCC3` [Example 176, 6-methyl-1,2,3,9-tetrahydro-4H-carbazol-4-one 4,5-dihydro-1H-imidazol-2-yl(methyl)hydrazone], the inhibition at 0.1 µM worked out at 24.2%.

Still in this experiment, the particulars now being: test compound dose 1000 nM; displacement of [3H]-LSD.
Take `Fc1ccc2[nH]c3c(c2c1)C(=NNC1=NCCN1)CCC3` [Example 157, 6-fluoro-1,2,3,9-tetrahydro-4H-carbazol-4-one 4,5-dihydro-1H-imidazol-2-ylhydrazone]: testing at 1 µM gave an inhibition of 96.3%. Same read-out and setting: to `[H]/N=C(/N)NN=C(C)c1c[nH]c2ccc(NS(=O)(=O)c3ccc(-c4ccccc4)cc3)cc12` [Example 35, (Z)-2-[1-[5-[(4-biphenylsulfonyl)amino]-1H-indol-3-yl]ethylidene]hydrazinecarboximidamide] belongs 96.4%. The same measure, in the same setting: the result for `CN=C(NCCO)NN=Cc1c(-c2ccc(Cl)cc2)[nH]c2ccccc12` [Example 114, 2-{[2-(4-chlorophenyl)-1H-indol-3-yl]methylidene}-N-(2-hydroxyethyl)-N′-methyl-1hydrazinecarboximidamide] reads 31.6%; that for `Clc1ccc2[nH]c3c(c2c1)C(=NNC1=NCCN1)CCC3` [Example 153, 6-chloro-1,2,3,9-tetrahydro-4H-carbazol-4-one 4,5-dihydro-1H-imidazol-2-ylhydrazone], 97%; that for `COc1ccc(S(=O)(=O)Nc2ccc3c(c2)c(C(C)=NNC(=N)N)cn3C)cc1OC` [Example 23], 99.4%. Still for that read-out and setting: the result for `N=C(N)NN=C(c1c(-c2ccccc2)n(-c2ccccc2)c2ccccc12)C1CCCCC1` [Example 80, 2-[cyclohexyl-(1,2-diphenyl-1H-indol-3-yl)-methylene]hydrazinecarboximidamide] reads 8.7%; that for `CC(=NNC(=N)N)c1c(-c2ccc(Cl)cc2)n(Cc2csc(C)n2)c2ccccc12` [Example 100, 2-(1-{2-(4-chlorophenyl)-1-[(2-methyl-1,3-thiazol-4-yl)methyl]-1H-indol-3-yl}ethylidene)-1hydrazinecarboximidamide], 31.5%; that for `CC(C)CC(=NNC(=N)N)c1c(-c2ccc(Cl)cc2)[nH]c2ccccc12` [Example 62, 2-{1-[2-(4-chloro-phenyl)-1H-indol-3-yl]-3-methyl-butylidene}hydrazinecarboximidamide], 78.2%. Consider `CN(N=C(Cc1ccc(Cl)cc1)c1c(-c2ccc(Cl)cc2)[nH]c2ccccc12)C1=NCCN1` [Example 73, N′-{2-(4-chloro-phenyl)-1-[2-(4-chloro-phenyl)-1H-indol-3-yl]-ethylidene}-N-(4,5-dihydro-1H-imidazol-2-yl)-N-methylhydrazine], for which at 1 µM the inhibition was 37.5%. On the same count and under the same terms, to `CC(=NNC(=N)N)c1c(-c2ccccc2)n(C)c2ccccc12` [Example 86, 2-[1-(1-methyl-2-phenyl-1H-indol-3-yl)-ethylidene]hydrazinecarboximidamide] belongs 99.4%. Same read-out and setting: the result for `N=C(N)NN=C(c1c(-c2ccc(Cl)cc2)[nH]c2ccccc12)C1CCCCC1` [Example 55, 2-{[2-(4-chloro-phenyl)-1H-indol-3-yl]-cyclohexyl-methylene}hydrazinecarboximidamide] reads 28.5%; that for `C/C(=N\NC(=N)N)c1c(-c2ccccc2)[nH]c2ccccc12` [Example 43, 2-[1-(2-Phenyl-1H-indol-3-yl)ethylidene]hydrazine-carboximidamide], 93.3%; that for `CN(N=C(C=Cc1ccccc1)c1c(-c2ccccc2)[nH]c2ccccc12)C1=NCCN1` [Example 71, N-(4,5-dihydro-1H-imidazol-2-yl)-N-methyl-N′-[3-phenyl-1-(2-phenyl-1H-indol-3-yl)-allylidene]hydrazine], 30%.

In turn, `Cn1c(-c2ccccc2)c(C(=NNC(=N)N)C2CCCCC2)c2ccccc21` [Example 79, 2-[cyclohexyl-(1-methyl-2-phenyl-1H-indol-3-yl)-methylene]hydrazinecarboximidamide] came in with an inhibition at 1 µM of 31.3%.

Take `N=C(NCc1ccccc1)NN=Cc1c(-c2ccc(Cl)cc2)[nH]c2ccccc12` [Example 117, 2-{[2-(4-chlorophenyl)-1H-indol-3-yl]methylidene}-N-benzyl-1hydrazinecarboximidamide]: the inhibition at 1 µM was 69%. With `N=C(NN=Cc1c(-c2ccc(Cl)cc2)[nH]c2ccccc12)NC1CCCC1` [Example 115, 2-{[2-(4-chlorophenyl)-1H-indol-3-yl]methylidene}-N-cyclopentyl-1hydrazinecarboximidamide], the inhibition at 1 µM came out at 49.5%. In the case of `CN(N=Cc1c(-c2ccc(Cl)cc2)n(Cc2ccccc2)c2ccccc12)C1=NCCN1` [Example 95, N-{[1-benzyl-2-(4-chloro-phenyl)-1H-indol-3-yl]-methylene}-N′-(4,5-dihydro-1H-imidazol-2-yl)-N-methylhydrazine], the “% Inhibition” value is 20.0%.

In the case of `N=C(N)NN=C1CCCc2[nH]c3ccc(F)cc3c21` [Example 156, 2-(6-fluoro-1,2,3,9-tetrahydro-4H-carbazol-4-ylidene)hydrazinecarboximidamide], the inhibition at 1 µM is 98.8%. Take `Cc1ccc(Cn2c(-c3ccc(Cl)cc3)c(C=NNC(=N)N)c3ccccc32)cc1` [Example 98, 2-{[2-(4-chloro-phenyl)-1-(4-methyl-benzyl)-1H-indol-3-yl]-methylene}hydrazinecarboximidamide]: the inhibition at 1 µM was 21.1%. As to `N=C(N)NN=C(Cc1ccccc1)c1c(-c2ccc(F)c(Cl)c2)[nH]c2ccccc12` [Example 61, 2-{1-[2-(3-chloro-4-fluoro-phenyl)-1H-indol-3-yl]-2-phenyl-ethylidene}hydrazinecarboximidamide], testing at 1 µM gave an inhibition of 83.9%.

For `CN(N=C(CCc1ccccc1)c1c(-c2ccccc2)[nH]c2ccccc12)C1=NCCN1` [Example 69, N-(4,5-dihydro-1H-imidazol-2-yl)-N-methyl-N′-[3-phenyl-1-(2-phenyl-1H-indol-3-yl)-propylidene]hydrazine], the inhibition at 1 µM came to 23%. The same measure, in the same setting: to `CCn1c(-c2ccc(Cl)cc2)c(C=NNC(=N)N)c2ccccc21` [Example 103, 2-{[2-(4-chloro-phenyl)-1-ethyl-1H-indol-3-yl]-methylene}hydrazinecarboximidamide] belongs 80.1%. Regarding `Cn1c(-c2ccccc2)c(C=NNC(=N)N)c2ccccc21` [Example 89, 2-[(1-methyl-2-phenyl-1H-indol-3-yl)-methylene]hydrazinecarboximidamide], 1 µM produced 70.6% inhibition. The same measure, in the same setting: the result for `N=C(N)NN=C(Cc1ccccc1)c1c(-c2ccccc2)n(-c2ccccc2)c2ccccc12` [Example 84, 2-[1-(1,2-diphenyl-1H-indol-3-yl)-2-phenyl-ethylidene]hydrazinecarboximidamide] reads 22.9%. As to `C=CCCn1c(-c2ccc(Cl)cc2)c(C=NN(C)C2=NCCN2)c2ccccc21` [Example 112, N-{[1-(3-butenyl)-2-(4-chloro-phenyl)-1H-indol-3-yl]-methylene}-N′-(4,5-dihydro-1H-imidazol-2-yl)-N-methylhydrazine], the “% Inhibition” value worked out at 85.1%.

The values above are taken from patent US6951881B2, “(1-substituted-indol-3-yl) alkylidenehydrazinecarboximidamide derivatives as 5-hydroxytryptamine-6 ligands” (Wyeth, priority 2002, dated 2005).
